# Laboratory results as given in patent US20240293551A1, “USE OF ST-TYPE LIPID COMPOUNDS IN PREPARATION OF NUCLEIC ACID DELIVERY REAGENT AND RELATED PRODUCT” (INSTITUTE OF BASIC MEDICAL SCIENCES CHINESE ACADEMY OF …, priority 2021, published 2024).
# System: PGY-sRNA-26
# Assay: In vivo delivery study of lipid-nucleic acid mixture (oral gavage, RT-qPCR of PGY-sRNA-26 in tissues)
# Design: species or system mouse
# Conditions: for delivery efficacy over each tissue and blood tested (broad-spectrum delivery): all tissues and blood tested; for oral delivery of single-stranded sRNA nucleic acids into mouse intestinal tissue: intestine
# Procedure, shortened: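 C57BL/6 male mice (~6 weeks, 20-24 g), fasted 12 h, were gavaged with 10 nmol 3′-methylated PGY-sRNA-26 mixed with 100 μg lipid (heated 90° C. 15 min), versus saline or free sRNA (n=4 each). After 12 h, blood and tissues were Trizol-extracted; sRNA quantified by stem-loop RT-qPCR relative to U6.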
# [1] = C57BL/6 mice, gavage, 100 μg lipid: 10 nmol PGY-sRNA-26, 12 hours
# [2] = C57BL/6 mice, gavage, 100 μg lipid: 10 nmol PGY-sRNA-26, 12 hours, brain
Compound,delivery efficacy over each tissue and blood tested (broad-spectrum delivery) [1],oral delivery of single-stranded sRNA nucleic acids into mouse blood [1],oral delivery of single-stranded sRNA nucleic acids into mouse femur [1],oral delivery of single-stranded sRNA nucleic acids into mouse heart tissue [1],oral delivery of single-stranded sRNA nucleic acids into mouse intestinal tissue [1],oral delivery of single-stranded sRNA nucleic acids into mouse kidney tissue [1],oral delivery of single-stranded sRNA nucleic acids into mouse liver tissue [1],oral delivery of single-stranded sRNA nucleic acids into mouse lung tissue [1],oral delivery of single-stranded sRNA nucleic acids into mouse spleen tissue [1],oral delivery of single-stranded sRNA nucleic acids into mouse stomach tissue [1],"oral delivery of single-stranded sRNA nucleic acids into mouse brain tissue (mouse, in vivo, po)",oral delivery of single-stranded sRNA nucleic acids into mouse brain tissue [2]
CC(=O)[C@@]1(O)CC[C@H]2[C@@H]3C[C@H](C)C4=CC(=O)CC[C@]4(C)[C@H]3CC[C@@]21C [Lipid 557],exhibited the best delivery efficacy,can effectively orally deliver,can effectively orally deliver,can effectively orally deliver,can effectively orally deliver,can effectively orally deliver,can effectively orally deliver,can effectively orally deliver,can effectively orally deliver,can effectively orally deliver,can effectively orally deliver,
C[C@@H]1CC[C@@]2(OC1)O[C@H]1C[C@H]3[C@@H]4CC[C@H]5C[C@@H](O)CC[C@]5(C)[C@H]4CC(=O)[C@]3(C)[C@H]1[C@@H]2C [Lipid 558],exhibited the best delivery efficacy,can effectively orally deliver,can effectively orally deliver,can effectively orally deliver,can effectively orally deliver,can effectively orally deliver,can effectively orally deliver,can effectively orally deliver,can effectively orally deliver,can effectively orally deliver,,can effectively orally deliver
C[C@]12CC[C@H](O)C[C@H]1CC[C@@H]1[C@@H]2CC[C@]2(C)[C@@H](C3=CC(=O)OC3)CC[C@]12O [Lipid 559],exhibited the best delivery efficacy,can effectively orally deliver,can effectively orally deliver,can effectively orally deliver,can effectively orally deliver,can effectively orally deliver,can effectively orally deliver,can effectively orally deliver,can effectively orally deliver,can effectively orally deliver,,can effectively orally deliver
C#C[C@]1(O)CC[C@H]2[C@@H]3CCC4=CC(=O)CC[C@@H]4[C@H]3CC[C@@]21CC [Lipid 560],exhibited the best delivery efficacy,can effectively orally deliver,can effectively orally deliver,can effectively orally deliver,can effectively orally deliver,can effectively orally deliver,can effectively orally deliver,can effectively orally deliver,can effectively orally deliver,can effectively orally deliver,,can effectively orally deliver
C[C@]12CC[C@H](O)CC1=CC[C@@H]1[C@@H]2CC[C@]2(C)C(=O)CC[C@@H]12 [Lipid 561],,can effectively orally deliver,can effectively orally deliver,,,,,,,,,
C[C@]12CC[C@H]3[C@@H](CCC4=CC(=O)CC[C@@H]43)[C@@H]1CC[C@@H]2O [Lipid 562],,can effectively orally deliver,can effectively orally deliver,can effectively orally deliver,can effectively orally deliver,,can effectively orally deliver,can effectively orally deliver,can effectively orally deliver,can effectively orally deliver,,can effectively orally deliver
C[C@]12CC[C@@H](O)C[C@@H]1CC[C@@H]1[C@@H]2CC[C@]2(C)C(=O)CC[C@@H]12 [Lipid 563],exhibited the best delivery efficacy,can effectively orally deliver,can effectively orally deliver,can effectively orally deliver,can effectively orally deliver,can effectively orally deliver,can effectively orally deliver,can effectively orally deliver,can effectively orally deliver,can effectively orally deliver,,can effectively orally deliver
C[C@]12C=CC(=O)C=C1CC[C@@H]1[C@@H]2C(=O)C[C@@]2(C)[C@H]1CC[C@]2(O)C(=O)CO [Lipid 564],,can effectively orally deliver,can effectively orally deliver,can effectively orally deliver,can effectively orally deliver,can effectively orally deliver,can effectively orally deliver,can effectively orally deliver,can effectively orally deliver,can effectively orally deliver,,can effectively orally deliver
CCCCCCCCCCCCCCCCC(=O)O[C@H]1CC[C@@]2(C)C(=CC[C@H]3[C@@H]4CC[C@H]([C@H](C)CCCC(C)C)[C@@]4(C)CC[C@@H]32)C1 [Lipid 565],,can effectively orally deliver,can effectively orally deliver,can effectively orally deliver,can effectively orally deliver,can effectively orally deliver,can effectively orally deliver,,,can effectively orally deliver,,can effectively orally deliver
C[C@]12CCC(=O)C=C1CC[C@@H]1[C@@H]2[C@@H](O)C[C@@]2(C)[C@H]1CC[C@]2(O)C(=O)CO [Lipid 566],,can effectively orally deliver,can effectively orally deliver,can effectively orally deliver,can effectively orally deliver,can effectively orally deliver,can effectively orally deliver,,,can effectively orally deliver,,
